Results: patent publication US20140128399A1, “METHODS AND COMPOSITIONS FOR TREATING URINARY TRACT INFECTIONS USING AGENTS THAT MIMIC OR ELEVATE CYCLIC AMP” (DUKE UNIVERSITY, priority 2007, published 2014)

What was measured:
[1] = tested on: 5637 BECs; assay: β-hexosaminidase release assay; format: cell-based, human; conditions: for release of β-hexosaminidase into extracellular media: uninfected 5637 BECs, 1 hr, forskolin 100 μM, dibutyryl-cAMP 1 mM, calcium ionophore 1 μM; for release of β-hexosaminidase from E. coli-infected BECs: E. coli ORN103(pSH2)-infected 5637 BECs, NiCl2 2 mM, H89 10 μM
[2] = tested on: E. coli CI5; assay: In vivo bladder infection, 2-h-long infection, intracellular bacterial CFU; set-up: species or system mouse; conditions: BALB/c mice, forskolin 2 h after infection, i.p. 10 mg/kg and by catheter 100 μM
Description: (§1) In this procedure, 8-week-old female BALB/c mice were anesthetized with sodium pentobarbital and then inoculated transurethrally with 50 μl of either E. coli CI5 or a bacterial suspension (approximately 1.0×10^8 CFU) suspended in PBS. After 2 h, the bladders were removed aseptically. Then the bladders were either bisected and fixed with 2% paraformaldehyde plus 2% gluteraldehyde in PBS (for transmission electron microscopy) or frozen for immunofluorescence microscopy. For the 2-h-long infections with E. coli and S. enterica SL1344, BALB/c mice were infected as above. After 2 h, the mice were intraperitoneally injected with 100 μl PBS (with or without 10 mg/kg forskolin) and intravesicularly instilled, for 1 h, with 100 μg/ml gentamicin in PBS (with or without 100 μM forskolin). For the 24-h-long infections, BALB/c mice were infected. After 24 h, the mice were intravesicularly instilled with 50 μl of PBS (with or without 100 μM forskolin) for 1 h. The 100 μM forskolin in PBS was replaced by 100 μg/ml gentamicin in PBS for 30 min. The bladders were then removed aseptically and homogenized them in 0.1% Triton X-100 in PBS. Homogenate dilutions were plated for colony counts.

[3] = tested on: S. enterica SL1344; assay: as above; set-up: species or system mouse; conditions: BALB/c mice, forskolin 2 h after infection, i.p. 10 mg/kg and by catheter 100 μM
Description: as §1

[4] = tested on: bacteria; assay: Bacterial viability (data not shown)
[5] = tested on: fusiform vesicles of mouse bladder BECs; assay: Immunofluorescence of bladder sections (Rab27b); format: in vivo; conditions: mouse bladders, antibodies to Rab27b, forskolin 100 μM 1 h
Description: Balb/c mice were either infected with E. coli CI5 as above, or they were treated with either 100 μM forskolin or PBS for 1 h through a catheter. Frozen sections of these bladders were cut using standard methods. Each section was fixed in 100% ethanol for 20 min at −20° C., and blocked in PBS with 1% BSA for 1 h at 4° C. Sections were incubated overnight at 25° C. with primary antibodies to either Rab27b (Santa Cruz Biotechnology, Inc., Santa Cruz, Calif.) or UPIII (Santa Cruz Biotechnology), and washed. Sections were incubated for 1 h at room temperature with secondary antibodies, and washed. To visualize the nuclei, the sections were incubated with Hoechst-33258 for 5 min at room temperature and then washed. All dilutions and washes were with PBS and 1% BSA. Coverslips were viewed as described previously.

[6] = tested on: E. coli CI5; assay: In vivo bladder infection, 24-h-long infection, intravesicular forskolin; set-up: species or system mouse; conditions: Balb/c mice
Description: as §1

[7] = tested on: E. coli CI5; assay: In vivo bladder infection with 3-d-long forskolin regimen; set-up: species or system mouse; conditions: C3H/HeJ mice, forskolin 10 mg/kg i.p. at 6, 24 and 48 h; at 72 h; P≦0.03
Description: In this procedure, 8-week-old female C3H/HeJ mice were infected with E. coli CI5 as above. At 6, 24 and 48 h after infection, the mice were intraperitoneally injected with 100 μl PBS, with or without 10 mg/kg forskolin. At 72 h after infection, bladders were aseptically removed and plated for colony counts.

[8] = tested on: IL-6; assay: IL-6 ELISA of urine; format: in vivo, mouse
Description: In this assay, 8-week-old female C3H/HeJ mice were infected with E. coli CI5 as above. After 6 h, the mice were intraperitoneally injected with 100 μl of PBS, with or without 10 mg/kg forskolin. Urine was collected at 6 and 24 h after infection, using clean catch methods, and the samples were stored at −80° C. The concentration of IL-6 in the urine was determined using the mouse IL-6 ELISA kit (eBioscience, San Diego, Calif.) according to the manufacturer's protocol.

[9] = tested on: E. coli ORN103(pSH2) invasion into 5637 BECs; assay: Gentamicin protection assay, UPEC invasion; format: cell-based, human; conditions: dilution 1:10
Description: (§2) A gentamicin protection assay, including 5637 BECs on 96-well plates (40,000 cells/well), was used to determine the effect of forskolin on UPEC invasion. In this example, the UPEC was either J96 or E. coli ORN103(pSH2). 50 μM forskolin was administered as a pretreatment for 15 min before infection or administered at the same time as the bacteria.

[10] = tested on: UPEC J96 invasion into 5637 BECs; assay: Gentamicin protection assay, UPEC invasion; format: cell-based, human; conditions: dilution 1:10
Description: as §2

[11] = tested on: UPEC strain CI5; assay: In vivo gentamicin protection assay, UPEC colonization of the bladder; set-up: species or system mouse; conditions: IP Fsk/Cather Fsk, 1 hr treatment
Description: An in vivo gentamicin protection assay was used to determine the effect of forskolin on UPEC colonization of the bladder. In this example, UPEC strain CI5 was injected into the bladder via catheter to initiate a urinary tract infection. After 2 hours of infection, the mice were re-catheterized, the urine was removed, and the bladder was treated with 100 uM forskolin in PBS for 1 hour. After the forskolin treatment, 100 ug/ml gentamicin in PBS was injected into the bladder via catheter for 30 minutes. The bladders were then removed, washed in sterile PBS, and homogenized. The homogenates were plated on LB agar for overnight colony counts at various dilutions. Control mice were treated with PBS alone instead of forskolin plus PBS. The top half of Table 3 represents the raw colony counts while the bottom half of Table 3 represents the calculated bladder load of UPEC strain C15 based on the dilutions.

[12] = tested on: human bladder epithelial cells; assay: Intracellular cAMP enzyme immunoassay; format: cell-based
Description: In this example, the effect of bacterial lipopolysccharide (LPS), a Toll-like Receptor 4 (TLR4) ligand, on intracellular levels of cAMP was assessed in human bladder epithelial cells (BECs). Methods are as described in Song et al. (2007) PLoS Pathog. 3(4):e60. BECs were seeded onto 6-well plates and grown overnight. The cells were treated with […] E. coli LPS for 6 h at 37° C., followed by washing four times with PBS to remove culture media, followed by an addition of […] of 0.1 M HCl. After a 10 min incubation, the cell lysate was centrifuged and the supernatant was used directly in the cAMP assay. Intracellular concentrations of cAMP were determined using a cAMP enzyme immunoassay kit (Sigma) according to the manufacturer's instructions.

[13] = tested on: phosphodiesterases; conditions: read-out: IC50, non-specific inhibitor of phosphodiesterases; cited from earlier work
[14] = tested on: E. coli ORN103(pSH2)-infected 5637 BECs; assay: Bacterial exocytosis assay; format: cell-based, human; conditions: inhibitors added during gentamicin incubation; H89 10 μM, NiCl2
Description: In this assay, 5637 BECs were infected with bacteria as above. Infection continued for 60 min, and then the cells were washed with culture medium (including 100 μg/ml gentamicin and 100 mM methyl α-D-mannopyranoside (Sigma, St. Louis, Mo.)) for an additional 30 min. The cells were then washed twice and then allowed to incubate for 1-4 h with fresh culture medium containing 100 mM methyl α-D-mannopyranoside. At each time point, the culture medium and one wash of 100 μl of culture medium with methyl α-D-mannopyranoside were collected and pooled. The inhibitors H89 (10 μM) and NiCl2 ([…]) were added during the gentamicin incubation and left in the culture medium. All homogenates and pooled culture medium were cultured for colony counts. All exocytosis assays had n=12 wells of a 96-well plate.

[15] = tested on: E. coli ORN103(pSH2) within 5637 BECs; assay: Intracellular bacteria survival assay (antibiotic protection); format: cell-based, human; conditions: NH4Cl 10 mM, 50 mM; Bafilomycin 1 μM
Description: In this assay, 5637 BECs were infected with ORN103(pSH2) E. coli diluted in RPMI 1640 medium at a multiplicity of infection (MOI) of 100:1. Cells were centrifuged for 5 min at 600 g, and incubated for 60 min at 37° C. Next, the cells were incubated with 100 μg/ml of gentamicin (Invitrogen) in RPMI medium for 30 min, and then with 10 μg/ml gentamicin in RPMI medium. At each time point, the cells were washed using PBS, solubilized with 0.1% Triton X-100 in PBS and plated for colony counts.

[16] = SH2, 50 μM forskolin at the same time as the bacteria
[17] = SH2, 50 μM forskolin pretreatment 15 min before infection
[18] = J96, 50 μM forskolin at the same time as the bacteria
[19] = J96, 50 μM forskolin pretreatment 15 min before infection

C=C[C@@]1(C)CC(=O)[C@]2(O)[C@@]3(C)[C@@H](O)CCC(C)(C)[C@@H]3[C@H](O)[C@H](OC(C)=O)[C@@]2(C)O1 [forskolin]
release of β-hexosaminidase into extracellular media [1]: stimulated the BECs to release appreciable levels of β-hexosaminidase | intracellular E. coli CI5 eliminated [2]: over 99% | effect on intracellular S. enterica SL1344 [3]: no effect | effect on bacterial viability [4]: no effect | translocation of fusiform vesicles to the apical plasma membrane [5]: translocation of fusiform vesicles to the apical plasma membrane of mouse bladders was detected | reduction in the number of E. coli CI5 within bladder compared to saline-treated controls ([6]; intravesicular forskolin 100 μM 24 h after infection, P≦0.033): 79.4% | mice harboring >10^5 bacteria in their bladders ([6]; intravesicular forskolin 24 h after infection, control 33%, P≦0.01): 4.1% | decrease of average bacterial load within the bladders compared to control mice [7]: 56% | decrease in urine IL-6 ([8]; E. coli CI5-infected C3H/HeJ mice, 18 h after forskolin 10 mg/kg i.p., P≦0.0003): 99.6% | IL-6 levels in uninfected mice ([8]; forskolin treatment alone, uninfected mice): did not alter IL-6 levels | intracellular bacteria, Mean [9, 16]: 10575 colony counts | intracellular bacteria, replicate 1 [9, 16]: 10980 colony counts | intracellular bacteria, replicate 2 [9, 16]: 8260 colony counts | intracellular bacteria, replicate 3 [9, 16]: 14140 colony counts | intracellular bacteria, replicate 4 [9, 16]: 8920 colony counts | intracellular bacteria, Mean [9, 17]: 9553 colony counts | intracellular bacteria, replicate 1 [9, 17]: 8860 colony counts | intracellular bacteria, replicate 2 [9, 17]: 9060 colony counts | intracellular bacteria, replicate 3 [9, 17]: 10740 colony counts | intracellular bacteria, Mean [10, 18]: 545 colony counts | intracellular bacteria, replicate 1 [10, 18]: 800 colony counts | intracellular bacteria, replicate 2 [10, 18]: 640 colony counts | intracellular bacteria, replicate 3 [10, 18]: 460 colony counts | intracellular bacteria, replicate 4 [10, 18]: 280 colony counts | intracellular bacteria, Mean [10, 19]: 535 colony counts | intracellular bacteria, replicate 1 [10, 19]: 720 colony counts | intracellular bacteria, replicate 2 [10, 19]: 140 colony counts | intracellular bacteria, replicate 3 [10, 19]: 200 colony counts | intracellular bacteria, replicate 4 [10, 19]: 1080 colony counts | Percent Control (bladder load), Average [11]: 0.41% | Percent Control (bladder load), mouse 1 [11]: 0.45% | Percent Control (bladder load), mouse 2 [11]: 0.22% | Percent Control (bladder load), mouse 3 [11]: 0.56% | raw colony counts of bladder homogenate, Average [11]: 83 colony counts | calculated bladder load of UPEC strain CI5, Average ([11]; based on the dilutions): 1653 colony counts | calculated bladder load of UPEC strain CI5, mouse 1 ([11]; based on the dilutions): 1820 colony counts | calculated bladder load of UPEC strain CI5, mouse 2 ([11]; based on the dilutions): 900 colony counts | calculated bladder load of UPEC strain CI5, mouse 3 ([11]; based on the dilutions): 2240 colony counts | raw colony counts of bladder homogenate, mouse 1 ([11]; dilution 1:1): 91 colony counts | raw colony counts of bladder homogenate, mouse 2 ([11]; dilution 1:1): 45 colony counts | raw colony counts of bladder homogenate, mouse 3 ([11]; dilution 1:1): 112 colony counts

CC(C)Cn1c(=O)n(C)c(=O)c2[nH]cnc21 [IBMX, 3-Isobutyl-1-methylxanthine]
intracellular cAMP levels compared to untreated controls [12]: significantly increases | IC50 [13]: 2 to 50 µM

O=S(=O)(NCCNC/C=C/c1ccc(Br)cc1)c1cccc2cnccc12 [H89]
release of β-hexosaminidase from E. coli-infected BECs [1]: regulatable | E. coli ORN103(pSH2) exocytosis into antibiotic-free medium [14]: reduced

CCCC(=O)Nc1ncnc2c1ncn2[C@@H]1O[C@@H]2COP(=O)(O)O[C@H]2[C@H]1OC(=O)CCC [dibutyryl-cAMP]
release of β-hexosaminidase into extracellular media [1]: stimulated the BECs to release appreciable levels of β-hexosaminidase

C[C@H](CCC(=O)O)C[C@H](C)C[C@H](C)C(=O)/C=C(\O)[C@H](C)C[C@H](C)C/C=C/[C@@H](C)[C@@H](O)[C@@H](C)[C@@H](O)C[C@@H]1CC[C@@](C)([C@H]2CC[C@@](C)([C@@H](C)O)O2)O1 [calcium ionophore, ionomycin]
release of β-hexosaminidase into extracellular media [1]: stimulated the BECs to release appreciable levels of β-hexosaminidase

[Cl][Ni][Cl] [NiCl2]
release of β-hexosaminidase from E. coli-infected BECs [1]: regulatable | E. coli ORN103(pSH2) exocytosis into antibiotic-free medium [14]: reduced

Cl.N [NH4Cl]
E. coli ORN103(pSH2) persistence within 5637 BECs [15]: caused no improvement

CO/C1=C\C(C)=C\[C@@H](C)[C@@H](O)[C@@H](C)C/C(C)=C/C=C/[C@H](OC)[C@@H]([C@@H](C)[C@@H](O)[C@H](C)[C@@]2(O)C[C@@H](O)[C@H](C)[C@@H](C(C)C)O2)OC1=O [Bafilomycin]
E. coli ORN103(pSH2) persistence within 5637 BECs [15]: caused no improvement
